In the NIST ThermoML archive (doi:10.1016/j.jct.2018.09.011):
“And” between values parts separate entries of the source, which are not always exact repeats. Equal values may be shown once.

Experiments:
[1] = for Normal melting temperature: DTA
[2] = Molar enthalpy of transition or fusion; details: Crystal; DSC

Nc1ccc(O)cc1 [4-hydroxybenzenamine]
[1], Crystal, Calculated from knudsen effusion weight loss
Details | vapor or sublimation pressure
337.15 K | 0.000113 kPa and 0.000111 kPa
339.54 K | 0.000144 kPa and 0.000147 kPa and 0.000145 kPa
341.2 K | 0.000179 kPa and 0.000175 kPa and 0.000177 kPa
343.15 K | 0.000223 kPa and 0.000221 kPa and 0.000219 kPa
345.47 K | 0.000284 kPa and 0.00028 kPa and 0.000287 kPa
347.19 K | 0.000348 kPa and 0.000342 kPa and 0.000344 kPa
349.15 K | 0.000425 kPa and 0.000418 kPa and 0.000431 kPa
351.21 K | 0.000527 kPa and 0.000533 kPa and 0.00053 kPa
353.2 K | 0.000653 kPa and 0.000634 kPa and 0.000645 kPa
355.14 K | 0.000787 kPa and 0.000786 kPa and 0.000796 kPa
357.46 K | 0.001018 kPa and 0.001002 kPa and 0.001003 kPa
359.19 K | 0.001205 kPa and 0.001211 kPa and 0.001198 kPa

Details | Normal melting temperature [°C]
[1], Crystal | 186.89

Details | Molar enthalpy of transition or fusion [kcal/mol]
[2] | 7.51

Nc1cccc(O)c1 [3-hydroxybenzenamine]
[1], Crystal, Calculated from knudsen effusion weight loss
Details | vapor or sublimation pressure
321.35 K | 0.000101 kPa and 0.000102 kPa
323.2 K | 0.000127 kPa and 0.000126 kPa
325.17 K | 0.000163 kPa and 0.000161 kPa and 0.000162 kPa
327.4 K | 0.000209 kPa and 0.000211 kPa and 0.00021 kPa
329.2 K | 0.00026 kPa and 0.000259 kPa
331.17 K | 0.000327 kPa and 0.00033 kPa and 0.000328 kPa
333.37 K | 0.000422 kPa and 0.00042 kPa
335.2 K | 0.000513 kPa and 0.0005 kPa and 0.00051 kPa
337.16 K | 0.00063 kPa and 0.000633 kPa
339.36 K | 0.000816 kPa and 0.000808 kPa and 0.000818 kPa
341.19 K | 0.00099 kPa and 0.000998 kPa and 0.001 kPa
343.33 K | 0.001245 kPa and 0.001241 kPa and 0.001238 kPa

[1]
Details | vapor or sublimation pressure [kPa]
354.45 K, Crystal | 0.00426
356.39 K, Crystal | 0.00515
358.34 K, Crystal | 0.00622
360.33 K, Crystal | 0.00754
362.32 K, Crystal | 0.00913
364.28 K, Crystal | 0.01083
366.24 K, Crystal | 0.01321
368.21 K, Crystal | 0.01572
369.99 K, Metastable liquid | 0.02985
370.19 K, Crystal | 0.01886
371.93 K, Metastable liquid | 0.03445
372.14 K, Crystal | 0.02314
373.94 K, Metastable liquid | 0.03983
374.12 K, Crystal | 0.02745
375.91 K, Metastable liquid | 0.04535
376.1 K, Crystal | 0.03277
377.86 K, Metastable liquid | 0.05245
378.06 K, Crystal | 0.0385
379.83 K, Metastable liquid | 0.06035
380.03 K, Crystal | 0.04532
381.81 K, Metastable liquid | 0.06885
382.13 K, Crystal | 0.05475
383.79 K, Metastable liquid | 0.07865
383.96 K, Crystal | 0.06316
385.75 K, Metastable liquid | 0.08925
385.9 K, Crystal | 0.07525
387.75 K, Metastable liquid | 0.1024
387.9 K, Crystal | 0.08917
389.74 K, Metastable liquid | 0.1162
389.85 K, Crystal | 0.1058
391.73 K, Metastable liquid | 0.131
391.83 K, Crystal | 0.1242
393.68 K, Metastable liquid | 0.1478
395.67 K, Metastable liquid | 0.1684
397.62 K, Liquid | 0.1915
399.72 K, Liquid | 0.2191
401.54 K, Liquid | 0.2426
403.63 K, Liquid | 0.2731
405.59 K, Liquid | 0.3119
407.46 K, Liquid | 0.3461
409.54 K, Liquid | 0.3932
411.5 K, Liquid | 0.4342
413.47 K, Liquid | 0.4825
415.43 K, Liquid | 0.5451
417.4 K, Liquid | 0.6031
419.39 K, Liquid | 0.6721
421.33 K, Liquid | 0.7506
423.31 K, Liquid | 0.8416

Details | Normal melting temperature [°C]
[1], Crystal | 121.48

Details | Molar enthalpy of transition or fusion [kcal/mol]
[2] | 5.6

Nc1ccccc1O [2-hydroxybenzenamine]
[1], Crystal, Calculated from knudsen effusion weight loss
Details | vapor or sublimation pressure
321.12 K | 0.000107 kPa and 0.000105 kPa and 0.000106 kPa
323.43 K | 0.000141 kPa and 0.000138 kPa and 0.000139 kPa
325.14 K | 0.00017 kPa and 0.000172 kPa
327.13 K | 0.000212 kPa and 0.000214 kPa
329.3 K | 0.000271 kPa and 0.000277 kPa and 0.000275 kPa
331.21 K | 0.000343 kPa and 0.000335 kPa and 0.00034 kPa
333.13 K | 0.000423 kPa and 0.000419 kPa
335.33 K | 0.000534 kPa and 0.000541 kPa and 0.000538 kPa
337.2 K | 0.000661 kPa and 0.000654 kPa and 0.000657 kPa
339.14 K | 0.000824 kPa and 0.000835 kPa and 0.000826 kPa
341.33 K | 0.001036 kPa and 0.001041 kPa and 0.001043 kPa
343.26 K | 0.00129 kPa and 0.001263 kPa

Details | Normal melting temperature [°C]
[1], Crystal | 174.38

Details | Molar enthalpy of transition or fusion [kcal/mol]
[2] | 7.79
